In brackets after ≈: the same amount, converted by molar mass.
Columns and labels:
Saccharomyces cerevisiae [1] = test: DNA damaging activity against RS322YK rad52Y DNA repair gene deficient Saccharomyces cerevisiae mutant assessed as drug level required to produce 12 mm zone of inhibition after 48 hrs; type: functional
Saccharomyces cerevisiae [2] = test: DNA damaging activity against RS167N rad6 DNA repair gene deficient Saccharomyces cerevisiae mutant assessed as drug level required to produce 12 mm zone of inhibition after 48 hrs; type: functional
[3] = Cytotoxicity against CHOAUXB1 cells; type: cell-based; conditions: Cricetulus griseus
Saccharomyces cerevisiae [4] = test: DNA damaging activity against RS321 DNA repair gene deficient Saccharomyces cerevisiae mutant assessed as drug level required to produce 12 mm zone of inhibition after 48 hrs; type: functional
Saccharomyces cerevisiae [5] = test: DNA damaging activity against RS188N rad DNA repair gene expressing Saccharomyces cerevisiae assessed as drug level required to produce 12 mm zone of inhibition after 48 hrs; type: functional

Row | Compound | IC12 (Saccharomyces cerevisiae [1]) | IC12 (Saccharomyces cerevisiae [2]) | IC50 [3] | IC12 (Saccharomyces cerevisiae [4]) | IC12 (Saccharomyces cerevisiae [5])
1 | CC[C@@]1(O)C(=O)OCc2c1cc1n(c2=O)Cc2cc3ccccc3nc2-1 [CAMPTOTHECIN] | 0.6 µg/mL | 8.7 µg/mL | 0.016 µg/mL (≈ 0.0459 µM) |  | 
2 | CC(C)=CCC/C(C)=C/CNC(=N)NC/C=C(\C)CCC=C(C)C [NITENSIDINE A] | > 1000 µg/mL | > 8000 µg/mL | 13 µg/mL (≈ 39.2 µM) | 6 µg/mL | > 1000 µg/mL
3 | CC(C)=CCC/C(C)=C/CN(C/C=C(\C)CCC=C(C)C)C(=N)N [NITENSIDINE B] | > 500 µg/mL | > 8000 µg/mL | 9.3 µg/mL (≈ 28.1 µM) | 10 µg/mL | > 1000 µg/mL
4 | CC(C)=CCC/C(C)=C/CN(C)C(=N)N(C)C/C=C(\C)CCC=C(C)C [NITENSIDINE C] | > 8000 µg/mL | > 8000 µg/mL | 20 µg/mL (≈ 55.6 µM) | 13 µg/mL | > 8000 µg/mL
5 | CC(C)=CCNC(=N)NCC=C(C)C [PTEROGYNIDINE] | > 1000 µg/mL | > 1000 µg/mL |  | 8.5 µg/mL | > 1000 µg/mL
6 | COC1=C(N)C(=O)c2nc(-c3nc(C(=O)O)c(C)c(-c4ccc(OC)c(OC)c4O)c3N)ccc2C1=O [STREPTONIGRIN] | 0.4 µg/mL | 2.4 µg/mL |  |  | 

Source: ChEMBL document CHEMBL1150088, “Bioactive Guanidine Alkaloids from Pterogyne nitens” (J Nat Prod, 1995)
